From patent US6627732B1, “Glutathione derivatives and their dosage forms” (Teijin Limited, priority 1998, dated 2003)
Where a name gives a salt, the structure may show the parent alone. Starred links: 1 amine or outer side, 2 acyl side, 3 side chain; linkers in the order of their positions; H or OH if unused. Non-standard residues stand in square brackets, D forms with d. Residues, ends and D or L forms follow the SMILES beside them. *: point of attachment. γGlu = O=C(O)[C@H](CCC(=O)[*:2])N[*:1]; dPhg = N[C@@H](C(=O)O)c1ccccc1; Bn = c1ccc(C*)cc1

Experiments:
swine liver esterase = assay: Decomposition of glutathione derivatives by swine liver esterase (physiological stability); assay type: in vitro ADME; conditions: BSA/D-PBS pH 7.4, 196-244 μg/ml
Experimental: (§1) (1) Bovine serum albumin (hereinafter referred to as BSA), Dulbecco's phosphate buffered saline (hereinafter referred to as D-PBS), swine liver esterase, and rabbit liver esterase were purchased from Sigma, 6-week old male SD rats were purchased from Nippon SLC, and 12-week old or older male Japanese white rabbits were purchased from Ichikawaya. On the day of the incubation experiment described below, blood was drawn from the animals in the presence of heparin, and plasma was separated therefrom for use. Human plasma was obtained from normal healthy males after obtaining their consent.
(§2) (2) The glutathione derivatives described in the Examples and Comparative Examples of the present invention were incubated for a fixed time in an enzyme solution having the following composition. Acetonitrile was added to the reaction mixture to inactivate the enzyme thereby to stop the reaction. The concentration of the glutathione derivatives in the deproteinized supernatant was measured by HPLC. For each time point of the esterase enzyme experiment, the mean values from two measurement or more were determined, and for the rats and rabbits the mean values of plasma samples from three individuals were determined. For some of the experiment data, changes with time of percentages relative to initial concentration of the glutathione derivative are shown in FIGS. 2 to 4.
(§3) Swine liver esterase and rabbit liver esterase experiment
(§4) 30 mg-BSA/ml-D-PBS (pH 7.4): 36 to 45 parts
(§5) Swine or rabbit liver esterase/D-PBS: 4-5 parts
(§6) 10 mg-glutathione derivative/ml-ethanol: one part (the final concentration in the reaction mixture is 196-244 μg/ml)

rabbit liver esterase = assay: Decomposition of glutathione derivatives by rabbit liver esterase (physiological stability); assay type: in vitro ADME; conditions: BSA/D-PBS pH 7.4, 196-244 μg/ml
Experimental: as §1, §2, §3, §4, §5, §6

[1] = Stability in rabbit plasma; conditions: rabbit, plasma
Experimental: as §1, §2
Rat, rabbit, and human plasma
Heparinized plasma: 30 to 40 parts
10 mg-glutathione derivative/ml-ethanol: one part (the final concentration in the reaction mixture is 250-323 μg/ml)

HL-60 cells = assay: HL-60 cell differentiation induction, NBT reducing activity, DMSO as solvent (Example 21); assay type: cell-based, human
Text: In a manner similar to that in Example 20, the in vitro activity of the glutathione derivatives of Examples 4, 5, and 8, and Comparative Example 3 were compared.
(1) The differences from Example 20 were: First, since the glutathione derivatives of Examples and Comparative Examples used dimethyl sulfoxide (DMSO) as the solvent because of the solubility of the compounds, the system contained 0.1-0.3 (v/v)% DMSO instead of ethanol. […] This caused slight differences in the sensitivity in the test results of the glutathione derivative of Example 4. Furthermore, in Example 21, the differentiation induction on HL-60 cells into granulocytic cells in the coexistence of 9-cis-RA was only evaluated.

[2] = Pharmacokinetics after intravenous administration to rabbits, 2-compartment model (Example 25); assay type: in vivo, rabbit; conditions: iv auricular vein 2 ml/kg, fat emulsion (Comparative Ex. 1: HPCD/glucose solution)
Text: For the glutathione derivative of the present invention having a long-chain ester having 12 carbons or more and the glutathione derivatives of the conventional technology of Comparative Examples 1 and 2, kinetics in the blood were compared in rabbits that are a species having allow esterase activity in the blood.
(1) Male Japanese white rabbits, 12-week old or older, were purchased from Ichikawaya, and those rabbits that became 15-week old or older and whose body weight reached about 3 kg were used for the experiment. During the period up to the experiment, the animals were allowed free access to the animal feed and drinking water and were kept at a temperature of 24±2° C. and a humidity of 55±5%.
(2) The glutathione derivative having a long-chain ester of 12 carbons or more and the glutathione derivative of Comparative Example 2 were prepared at 20-200 mg/ml in a mixture of ethanol or ethanol:benzyl alcohol, which was mixed with the fat emulsion just prior to use, and was filtered with a 1.2 μm filter to obtain a liquid for intravenous administration. On the other hand, the glutathione derivative of Comparative Example 1 was dissolved in an aqueous solution of 6%-hydroxypropyl-β-cyclodextrin/5%-glucose at 15 mg/ml to obtain an administration liquid.
(3) The administration liquid of the glutathione derivative obtained in (2) at a dose of 2 ml/kg was rapidly infused into the left auricular vein of the rabbits under no anesthesia and under restraint at a rate of 1 ml/min. Each glutathione derivative was given to three or more rabbits. At 5, 10, 15, 30, 60, 120, and 240 minutes after the completion of the administration, 1 ml of the blood was drawn from the right auricular vein in the presence of heparin, which was immediately cooled on ice. Plasma was obtained by centrifuging the blood, 1-2 volume parts of acetonitrile was added to deproteinize the supernatant, which was filtered by a 0.5 μm filter. The supernatant of the filtrate was quantitated by HPLC.

[3] = system: human leukemia cell HL-60; assay: HL-60 cell differentiation induction, NBT reducing activity (Example 20); assay type: cell-based; conditions: 4 days
Experimental: Using the differentiation induction effect on the granulocytes or monocytes/macrophages obtained by culturing the human leukemia cell HL-60 in the presence of 9-cys-retinoic acid (9-cis-RA) or activated vitamin D3 (1α, 25(OH)2D3), and in the coexistence of the glutathione derivatives of Examples and the Comparative Examples of the present invention, the growth-promotion activity was tested.
(1) HL-60 cells used were purchased from the cell bank (Japanese Cancer Research Resource Bank, Cell No. JCRBOO85). In accordance with a standard method, the lyophilized cell stocks that were thawed before the start of the experiment and subcultured were used.
Subculturing was carried out by centrifuging (1500 rpm, 5 minutes) the cells in suspension culture and recovering and by diluting it in a fresh culture liquid at a concentration of about 1/100 (1 to 2×10^4 cells/ml). As the culture liquid, an RPMI 1640 medium containing 10% fetal bovine serum was used.
(2) The cells subcultured in (1) were recovered by centrifugation (1500 rpm, 5 minutes), and were dispersed in the culture liquid at 2×10^4 cells/ml, which were plated on a 24-well culture plate at 1 ml/well. To this system were added the glutathione derivatives of Example 4, Example 11, Comparative Example 1 and Comparative Example 2 and a differentiation induction substance (9-cis-RA or 1α, 25(OH)2D3). Thus, 1 μl per well each of an ethanol solution of the differentiation induction substances 9-cis-RA and 1α, 25(OH)2D3 were added at 5×10^−6 M and 2×10^−6 M, respectively. Then, 1 μl per well each of ethanol solutions of the glutathione derivatives at 1×10^−4 M to 1×10^−2 M was added. As the solvent treatment for the control, 1 μl of ethanol per well was added in stead of the glutathione derivative, and as the single treatment of glutathione derivatives, 1 μl of ethanol per well was added in stead of the differentiation induction substance. After culturing at 37° C. and 5% CO2 for 4 days, the cells were recovered by centrifugation (1500 rpm, 5 minutes).
(3) The measurement of a nitroblue tetrazolium (NBT) reducing activity which is often used for the evaluation of differentiation induction effects on monocytes/macrophages or granulocytic cells was carried out according to the following procedure. Thus, the cells recovered by centrifugation in (2) were suspended in a fresh culture medium, and then NBT was added thereto to […] and 12-O-tetradecanoyl phorbol-13-acetate to 100 nM. After incubating at 37° C. for 25 minutes, cytospin samples were prepared. After air drying, the cells were subjected to Kernechtrot stain, and 500 cells per sample were examined under alight microscope to determine the ratio of the NBT reduction activity-positive cells.
(4) The result of the experiment in which glutathione derivatives at 10^−7 to 10^−5 M were treated together with a differentiation induction substances is shown in Table 4. For a single treatment of each glutathione derivative up to 10^−5 M, no increases in the NBT reducing activity was observed. In a combined treatment of a glutathione derivative and a differentiation induction substance, an enhanced ratio of the NBT reduction activity-positive cells relative to the single treatment with a differentiation induction substance was observed depending on the concentration of the glutathione derivative. There were no major differences observed in the strength of effects between the glutathione derivatives of Examples 4 and 11 and Comparative Examples 1, and 2.

[4] = compound 3 × 10^−6 M in DMSO, Solvent control (EtOH - 0.1%)
[5] = compound 3 × 10^−6 M in DMSO, with 9-cis-RA (5 × 10^−9 M)
[6] = compound 3 × 10^−7 M in DMSO, Solvent control (EtOH - 0.1%)
[7] = compound 3 × 10^−7 M in DMSO, with 9-cis-RA (5 × 10^−9 M)
[8] = compound 3 × 10^−8 M in DMSO, Solvent control (EtOH - 0.1%)
[9] = compound 3 × 10^−8 M in DMSO, with 9-cis-RA (5 × 10^−9 M)
[10] = compound 10^−6 M in DMSO, Solvent control (EtOH - 0.1%)
[11] = compound 10^−6 M in DMSO, with 9-cis-RA (5 × 10^−9 M)
[12] = compound 10^−7 M in DMSO, Solvent control (EtOH - 0.1%)
[13] = compound 10^−7 M in DMSO, with 9-cis-RA (5 × 10^−9 M)
[14] = compound 10^−8 M in DMSO, Solvent control (EtOH - 0.1%)
[15] = compound 10^−8 M in DMSO, with 9-cis-RA (5 × 10^−9 M)

Row | Structure (SMILES) | Decomposition rate constant by rabbit liver esterase (rabbit liver esterase) | Ratio of NBT reduction activity-positive cells (HL-60 cells; [4]) [%] | Ratio of NBT reduction activity-positive cells (HL-60 cells; [5]) [%] | Ratio of NBT reduction activity-positive cells (HL-60 cells; [6]) [%] | Ratio of NBT reduction activity-positive cells (HL-60 cells; [7]) [%] | Ratio of NBT reduction activity-positive cells (HL-60 cells; [8]) [%] | Ratio of NBT reduction activity-positive cells (HL-60 cells; [9]) [%] | Ratio of NBT reduction activity-positive cells (HL-60 cells; [10]) [%] | Ratio of NBT reduction activity-positive cells (HL-60 cells; [11]) [%] | Ratio of NBT reduction activity-positive cells (HL-60 cells; [12]) [%] | Ratio of NBT reduction activity-positive cells (HL-60 cells; [13]) [%] | Ratio of NBT reduction activity-positive cells (HL-60 cells; [14]) [%] | Ratio of NBT reduction activity-positive cells (HL-60 cells; [15]) [%] | further results
1 | CCCCCCCCCCOC(=O)[C@H](NC(=O)[C@H](CSCc1ccccc1)NC(=O)CC[C@H](N)C(=O)OCC)c1ccccc1.Cl [Comparative Example 4, Glu(Cys(Bzl)-D-Phg-O(Decyl))-OEt Hydrochloride, reference compound] | 54.2 10^−4/unit/min | – | – | – | – | – | – | – | – | – | – | – | – | Decomposition rate constant by swine liver esterase (swine liver esterase): 88.5 10^−4/unit/min; Half life in rabbit plasma [1]: 3.02 h
2 | N[C@@H](CCC(=O)N[C@@H](CSCc1ccccc1)C(=O)N[C@@H](C(=O)O)c1ccccc1)C(=O)O [Comparative Example 3, Glu(Cys(Bzl)-D-Phg-OH)-OH Hydrochloride, reference compound] (γGlu-Cys(Bn)-[dPhg]-OH) | – | 0.6 | 17.1 | 0.6 | 3.8 | 0.5 | 2.8 | 0.3 | 6.1 | 0.3 | 3.5 | 0.7 | 3.1 | –
3 | CCCCCCCCCCCCCCCCCCCCCCOC(=O)[C@@H](N)CCC(=O)N[C@@H](CSCc1ccccc1)C(=O)N[C@@H](C(=O)OCC)c1ccccc1.Cl [Example 2, Glu(Cys(Bzl)-D-Phg-OEt)-O(Docosyl)hydrochloride] | 0.523 10^−4/unit/min | – | – | – | – | – | – | – | – | – | – | – | – | Clearance per body weight [2]: 0.83 mL/min/kg; Distribution volume per body weight of the central compartment [2]: 0.07 L/kg
4 | CCCCCCCCCCCCCCCCOC(=O)[C@H](NC(=O)[C@H](CSCc1ccccc1)NC(=O)CC[C@H](N)C(=O)O)c1ccccc1.Cl [Example 11, Glu(Cys(Bzl)-D-Phg-O(Hexadecyl))Hydrochloride] | – | – | – | – | – | – | – | – | – | – | – | – | – | Ratio of NBT reduction activity-positive cells ([3]; compound 10^−5 M, Solvent control (EtOH), no differentiation induction substance): 0.8%; Ratio of NBT reduction activity-positive cells ([3]; compound 10^−5 M, with 1α,25(OH)2D3 (2 × 10^−9 M)): 13.8%; Ratio of NBT reduction activity-positive cells ([3]; compound 10^−5 M, with 9-cis-RA (5 × 10^−9 M)): 19.8%; Ratio of NBT reduction activity-positive cells ([3]; compound 10^−6 M, Solvent control (EtOH), no differentiation induction substance): 0.2%; Ratio of NBT reduction activity-positive cells ([3]; compound 10^−6 M, with 1α,25(OH)2D3 (2 × 10^−9 M)): 4.8%; Ratio of NBT reduction activity-positive cells ([3]; compound 10^−6 M, with 9-cis-RA (5 × 10^−9 M)): 11.2%; Ratio of NBT reduction activity-positive cells ([3]; compound 10^−7 M, Solvent control (EtOH), no differentiation induction substance): 0.6%; Ratio of NBT reduction activity-positive cells ([3]; compound 10^−7 M, with 1α,25(OH)2D3 (2 × 10^−9 M)): 5.1%; Ratio of NBT reduction activity-positive cells ([3]; compound 10^−7 M, with 9-cis-RA (5 × 10^−9 M)): 8.8%
5 | CCCCCCCCCCCCCCCCOC(=O)[C@H](NC(=O)[C@H](CSCc1ccccc1)NC(=O)CC[C@H](N)C(=O)OCC)c1ccccc1.Cl [Example 8, Glu(Cys(Bzl)-D-Phg-O(Hexadecyl))-OEt Hydrochloride] | – | 0.7 | 16.9 | 0.9 | 4.7 | 0.4 | 3.2 | 0.8 | 8.8 | 0.8 | 4.2 | 0.5 | 2.9 | –
6 | CCCCCCCCCCCCCCCCOC(=O)[C@H](CCC(=O)N[C@@H](CSCc1ccccc1)C(=O)N[C@@H](C(=O)OCC)c1ccccc1)NC(C)=O [Example 5, Ac-Glu(Cys(Bzl)-D-Phg-OEt)-O(Hexadecyl)] | – | 0.2 | 11.2 | 0.7 | 4.3 | 0.7 | 2.1 | 0.3 | 6.5 | 0.9 | 3.2 | 0.3 | 2.5 | –
